The experiment is filed under the species Rattus norvegicus. The experiment is described as follows: In vitro release of growth hormone by rat pituitary assay. In kind it is functional.

Structures are written as SMILES. Square brackets hold non-standard residues; d marks the D form. Peptide text beside a SMILES is read from it. d2Nal = N[C@H](Cc1ccc2ccccc2c1)C(=O)O; 3Amb = NCc1cccc(C(=O)O)c1

Take `NCCCC[C@H](NC(=O)[C@@H](Cc1ccccc1)NC(=O)[C@@H](Cc1ccc2ccccc2c1)NC(=O)c1ccc(CN)s1)C(N)=O`: a half-maximal effect (EC50) was put at 210 nM.
Consider `NCCCC[C@H](NC(=O)[C@@H](Cc1ccccc1)NC(=O)[C@@H](Cc1ccc2ccccc2c1)NC(=O)c1ccccc1CN)C(N)=O`, for which the EC50 worked out at 85 nM.
Compound `NCCCC[C@H](NC(=O)[C@@H](Cc1ccccc1)NC(=O)[C@@H](Cc1ccc2ccccc2c1)NC(=O)c1cc(CN)cs1)C(N)=O` registered an EC50 of 675 nM.
On to `C[C@H](N)C(=O)N[C@@H](Cc1c[nH]cn1)C(=O)N[C@H](Cc1ccc2ccccc2c1)C(=O)N[C@H](Cc1ccccc1)C(=O)N[C@@H](CCCCN)C(N)=O`, for which the midpoint of the response, the EC50, lay at 6 nM. Compared with the last compound, the EC50 is about 110-fold lower.
For the compound `NCCCC[C@H](NC(=O)[C@@H](Cc1ccccc1)NC(=O)[C@@H](Cc1ccc2ccccc2c1)NC(=O)c1sccc1CN)C(N)=O`, the EC50 is 27 nM.
Next, `NCCCC[C@H](NC(=O)[C@@H](Cc1ccccc1)NC(=O)[C@@H](Cc1ccc2ccccc2c1)NC(=O)c1cccc(CN)c1)C(N)=O` (H-[3Amb][d2Nal][dF]K-NH2): 7 nM.

These data come from ChEMBL document CHEMBL1151091, “Aminomethylthiophene-2-carboxylic acids as dipeptide mimetic in new growth hormone secretagogues” (Bioorg Med Chem Lett, 1997).
